Reference: patent US20240000811A1, “INOSITOL HEXAKISPHOSPHATE ANALOGUES FOR TREATMENT OF CALCIFICATION ASSOCIATED KIDNEY DISEASES” (INOSITEC AG, priority 2020, published 2024)

Columns and labels:
Assay type in all cases: cell-based
[1] = tested on: RPTEC/TERT 1 human proximal tubule cells; experiment: RNA sequencing of RPTEC treated with Ca/P and compound; conditions: 50 μM compound
Experimental: RNA sequencing Cells were cultured as described in the imaging assay and treated with a medium control (ProxUp basal medium containing 1/1 mM Ca/P), 5/7 mM Ca/P, 5/7 mM Ca/P in medium containing 50 μM (OEG2)2-IP4 or 50 μM (OEG2)2-IP4 in medium for 24 h. Total RNA was extracted using the RNeasy kit (Quiagen) according to the manufacturer's instructions. Three wells per sample group were prepared and total RNA extracted of those 3 wells pooled. mRNA was purified and RNAseq library was prepared using the TrueSeq RNA kit (Illumina). Sequencing was performed on a Novaseq 6000 (Illumina). Reads were aligned to the human reference genome GRCh38.p10 using the STAR tool (https://github.com/alexdobin/STAR) and transcripts quantified using the Kallisto program (42). Ensembl release 91 was used for the gene model definitions. […] The heatmap was plotted using R software. Overrepresentation analysis was performed on Webgestalt.org (v2019) (43), using differentially expressed genes with p≤0.01, log 2fold change≥0.5. Differential expressed genes were compared to the gene ontology—biological process functional database and as a reference set the human genome—protein coding was used. The weighted set cover of the top 30 enriched categories was plotted. For comparison of expression levels of the selected genes, the fragments per kilobase of exon model per million reads mapped (FPKM) were used. Three independent experiments were performed. RNA sequencing raw data is available on the EMBL Nucleotide Sequence Database (ENA) under the accession number PRJEB38397.

[2] = tested on: RPTEC/TERT 1 human proximal tubule cells; experiment: CaP-induced CaOx crystallization on RPTEC monolayers; conditions: 1.2 mM oxalate, 4 h
Experimental: For the assessment of CaP-induced CaOx crystallization, after 24 h of incubation, Ca/P spiked medium was removed, and cells were washed twice with PBS. Subsequently, medium containing 1.2 mM oxalate and compound was added to each well. After 4 h of incubation at 37° C. and 5% CO2 treatment was removed, and cells washed once with PBS before staining.
(§1) For staining, ProxUp basal medium was mixed with calcein (500 nM final concentration), EthD (6 μM final concentration), CellMask stain ([…]) and Hoechst 33342. Staining mixture was added to RPTEC and cells were incubated for 30 min in the dark at 37° C. and 5% CO2. Staining solution was removed, cells were washed with PBS once and ProxUp basal medium was added. Cells were immediately imaged after staining. Images were obtained by epifluorescence microscopy at 37° C., using a Leica CTR6000 microscope. For quantification 3 wells/condition were prepared and 3 images/well were taken. For preliminary adhesion experiments images were taken with a 10× objective, for the imaging assay 20× objective images were taken.

[3] = tested on: RPTEC/TERT 1 human proximal tubule cells; experiment: Imaging assay: CaP adhesion/deposition and cellular changes on RPTEC monolayers treated with 5/7 mM Ca/P
Experimental: RPTEC/TERT 1 human proximal tubule cells (RPTEC) were cultured in T75 tissue culture flasks using ProxUp basal medium mixed with ProxUp supplements at 37° C. and 5% CO2 according to manufacturer's recommendations. Cells were used up to passage 30 and regularly tested for Mycoplasma infections. For experiments, RPTEC were cultured in 24-well plates at a seeding density of 150′000 cells/cm^2. Cell viability assessment and cell counting before seeding was performed using an automated cell counter (BioRad TC 20, Hercules, CA, USA).
For the comparison of selected IP6 analogues, ProxUp basal medium was prepared with the selected inhibitor and added to each well. Then, CaP precipitation was induced by direct addition of first, phosphate and second, calcium. Final concentrations of 7 mM phosphate and 5 mM calcium were used. Cells were incubated for 24 h at 37° C. and 5% CO2. Spiked medium was removed, and cells were washed twice with PBS before staining.
as §1
Multichannel images were saved as individual channel images in 8-bit tiff format. For analysis Hoechst channel images were thresholded using the triangle threshold. Touching nuclei of the binary image were further segmented using the watershed algorithm with the distance transform of the binary image as input and local maxima thereof as seeds.
For EthD channel images, high level of background noise was observed, potentially as a result of fluorescence of the CellMask stain bleeding through. […] A fixed minimum threshold was set at 60. Watershed segmentation similar to the Hoechst channel was performed to segment touching objects. For the calcein channel images adaptive thresholding by triangle thresholding achieved good detection of CaP deposits, which was validated by visual comparison to brightfield channel images. For compound experiments, an additional upper threshold was set to the minimum threshold of the pos.ctrl images for the respective experiment. Thereby an overly insensitive threshold in images with a high amount of CaP deposition was circumvented. The sum of foreground pixels of the binary image was used to calculate the total area of CaP deposits. The skimage label algorithm was used to label touching foreground regions.
To segment images to single cells the CellMask channel image was first binarized by adaptive thresholding, using a blocksize of 35, followed by median filtering. Binary erosion was performed to shrink the outlines. A version of watershed algorithm was used to segment the whole image into single cells. To this end, the distance transform of the binary erosion image was used as input image and seeds were set to the local maxima of the Hoechst channel image. While this protocol allowed for an approximation of single cell morphology, further improvements of both analytical and experimental staining procedure would be necessary to achieve more accurate results.
Additionally, texture features of calcein and CellMask channel images were extracted. Grey level co-occurrence matrices were calculated using one set offset of 5 pixel and an angle of 90°. Here, the use of larger offsets could improve the detection of changes in large-scale features, e.g. CaP clustering sites. […]

[4] = 7 mM phosphate, 5 mM calcium, 24 h

COCCOCCO[C@@H]1C(OP(=O)(O)O)[C@H](OCCOCCOC)[C@@H](OP(=O)(O)O)C(OP(=O)(O)O)[C@H]1OP(=O)(O)O (stereo partly drawn) [(OEG2)2-IP4]
Ca/P-induced change in gene expression profile ([1]; 5/7 mM Ca/P, 24 h): prevented | differentially expressed genes, Ca/P+compound vs. compound only ([1]; fold change ≥1.5 and p≤0.05): 77 | differentially expressed genes, Ca/P+compound vs. negative ctrl ([1]; fold change ≥1.5 and p≤0.05): 76 | differentially expressed genes, Ca/P+compound vs. positive ctrl ([1]; fold change ≥1.5 and p≤0.05): 2437 | differentially expressed genes, compound only vs. positive ctrl ([1]; fold change ≥1.5 and p≤0.05): 2935 | calcium oxalate dihydrate (COD) in CaP-induced CaOx crystallization ([2]; 100 μM compound): almost entirely abolished | CaOx crystal form in CaP-induced CaOx crystallization ([2]; after 24 h Ca/P, dose-dependent): revert CaOx crystallization from calcium oxalate monohydrate (COM), the predominant most stable form, to calcium oxalate dihydrate (COD) | concentration achieving complete inhibition of CaP adhesion [3, 4]: 50 µM | concentration down to which CaP adhesion was drastically reduced [3, 4]: 12.5 µM | single cell area compared to the positive ctrl ([3]; 6-50 μM compound, 5/7 mM Ca/P): dose-dependently reduced | single cell solidity compared to the positive ctrl ([3]; 6-50 μM compound, 5/7 mM Ca/P): increased | total cell count/field of view compared to the positive ctrl ([3]; 6-50 μM compound, 5/7 mM Ca/P): increased | number of dead cells compared to the positive ctrl ([3]; 6-50 μM compound, 5/7 mM Ca/P, EthD staining): dose-dependently reduced | image feature profile vs positive ctrl (+5/7 mM Ca/P) and negative ctrl ([3]; 6-50 μM compound, 24 h): dose-dependent reversal | total CaP area compared to the positive ctrl ([3]; 6 and 13 μM compound, 5/7 mM Ca/P, calcein staining): reduction
